# From patent publication US20200129597A1, “MODULATION OF FACTOR Xa INHIBITOR-MEDIATED BLOOD LOSS BY PARTIAL AND TRANSIENT ADMINISTRATION OF ANTIDOTE” (Portola Pharmaceuticals, Inc., priority 2012, published 2020)
# “And” between values parts separate entries of the source, which are not always exact repeats. Identical values can stand only once.
# Key:
# [1] = Total and unbound fXa inhibitor plasma concentration in rats; format: in vivo, rat; settings: for fraction unbound: intravenous
# Method: Total rivaroxaban plasma concentration at different time points from FIG. 10A was determined by LC-MS (solid line).
# Similar experiments were carried out using betrixaban and apixaban infusion into anesthetized rats (FIG. 10B and FIG. 10C).
# Blood sampling catheter patency was maintained by slow infusion of normal saline. Serial blood samples were obtained during the experimental time course. Total fXa inhibitor concentration was measured by HPLC with tandem mass spectrometry.
# [2] = Phase 2 trial: plasma concentrations; settings: apixaban 5 mg bid
# Text: (§1) Pharmacodynamic and safety data are collected through Day 48 and PK through Day 10. A chromogenic assay was used to determine anti-fXa activity.
# [3] = Phase 2 trial: anti-fXa activity (chromogenic assay) after apixaban and r-Antidote; format: in vivo, human; settings: apixaban 5 mg bid (11 doses)
# Text: as §1
# blood loss [4] = test: Mouse tail transection blood loss model; format: in vivo; settings: for blood loss: 15 min, mean±SD, rivaroxaban 50 mg/kg oral, ASA ~100 mg/kg/day 5 days, treatment as labelled
# Method: Mice (n=5-8/group) were first dosed orally with vehicle or aspirin at ˜100 mg/kg/day for 5 days. Rivaroxaban (50 mg/kg) or vehicle (5 mL/kg) was then dosed orally.
# For the mouse tail transection blood loss model, mice (male, C57BL/6, Charles River) were first treated with aspirin at ˜100 mg/kg/day for 5 days via drinking water.
# [5] = tested on: activated partial thromboplastin time (aPTT); test: Activated partial thromboplastin time in rabbit liver laceration model; format: in vivo; settings: for prolongation of aPTT: rivaroxaban 1 mg/kg, 30 min time point
# Method: (§2) Anesthetized rabbits were administered vehicle or 1 mg/kg rivaroxaban via IV bolus injection. […] Total rivaroxaban concentration in plasma was measured by LC-MS/MS. […] Anti-fXa activity was measured using a modified chromogenic LMW heparin kit. PT and aPTT was measured using commercial reagents (HemosIL).
# (§3) For human in vitro and rat ex vivo experiments, PT was measured using MLA Electra 800 automatic coagulation timer. Innovin was automatically dispensed to plasma samples (100 μL) per manufacturer's instructions. […] For rabbit experiments, PT and aPTT were measured using a Beckman Coulter ACL Elite instrument with HemosIL reagents (available commercially from Instrumentation Laboratories). Whole blood INR (International Normalized Ratio) for animal samples were measured by Hemchron Jr. Signature Cartridges (International Technidyne Corporation) according to manufacturer's instructions.
# (§4) Rivaroxaban (1 mg/kg) or vehicle was dosed to anesthetized rabbits by IV bolus over 2 minutes via marginal ear vein catheter. […] Serial blood samples were collected at 0, 30, 35, and 50 minutes post rivaroxaban. Measurements included reduction in blood loss, decrease in unbound rivaroxaban in the plasma using equilibrium dialysis method, anti-fXa activity, PT and aPTT. The method for measuring PT is described previously in Example 6.
# blood loss [6] = test: Rabbit liver laceration blood loss model; format: in vivo; settings: for increase in blood loss compared with vehicle: rivaroxaban 1 mg/kg IV bolus
# Method: Rivaroxaban (1 mg/kg) or vehicle was dosed by IV bolus over 2 minutes via marginal ear vein catheter. […] Riva=Rivaroxaban; g=gram
# as §2
# Anesthetized rabbits were administered vehicle or 1 mg/kg rivaroxaban via IV bolus injection. […] As in the rodent model, total and free rivaroxaban concentration in plasma, anti-fXa activity and PT and activated partial thromboplastin times (aPTT) was measured.
# as §4
# prothrombin time (PT) [7] = test: Prothrombin time in rabbit liver laceration model; format: in vivo; settings: for prolongation of PT: rivaroxaban 1 mg/kg, 30 min time point
# Method: as §2, §3, §4
# [8] = Total and free rivaroxaban concentration in rabbit plasma; format: in vivo; settings: for concentration at 30 min: male, NZW, rabbit, plasma
# Method: as §2, §4
# prothrombin time (PT) [9] = test: Prothrombin time in human plasma in vitro; format: biochemical; settings: rivaroxaban 1 μM
# Method: as §3
# [10] = Total rivaroxaban concentration in mouse plasma; settings: following r-Antidote administration (Treat-V)
# blood loss [11] = test: Rat tail transection model, r-Antidote bolus plus infusion after enoxaparin or fondaparinux; format: in vivo; settings: fondaparinux 25 mg/kg; protamine 0.9 mg/rat IV bolus; p=0.39
# Method: Enoxaparin (4.5 mg/kg) or vehicle was dosed by IV bolus over 5 min, followed by treatment with vehicle or two different doses of r-Antidotc (2 mg/rat bolus plus 2 mg/hr infusion and 4 mg/rat bolus plus 4 mg/hr infusion) starting at 10 min. […] Protamine was dosed as an IV bolus only (0.9 mg/rat). […] Anti-fXa activity was normalized to the activity of Treat-II at 5 min time point. *** P-value (Treat-III vs. Treat-II)≤0.0001.
# The collected blood samples were processed by freezing the samples at −80° C. to lyse erythrocytes. Hemoglobin concentration and corresponding blood volume were quantified spectrophotometrically (Absorbance at 490 nm) from a standard curve constructed with known volumes of blood.
# blood loss [12] = test: Rat tail transection treatment model, r-Antidote given after bleeding initiated; format: in vivo; settings: enoxaparin-treated group
# Method: In a pilot study using this antidote treatment model, anesthetized rats were intravenously (IV) administered either vehicle or enoxaparin (4.5 mg/kg, IV bolus) followed by tail transection at 5 min post-dosing.
# Anesthetized rats were administered enoxaparin (4.5 mg/kg) or vehicle by I.V. bolus injection followed by tail transection (2 mm from tip) 5 minutes later. […] The tip of the tail was placed in physiologic saline at 37° C. and blood collected for an additional 45 minutes after tail transection. Blood was lysed by diluting in water and freezing at −80° C. overnight. […] Anti-fXa activity of enoxaparin was measured using a modified chromogenic LMW heparin kit. Tissue factor (TF)-initiated thrombin generation was carried out in human plasma using a fluorogenic thrombin substrate by measurement of change of relative fluorescence unit (RFU) for 10 min following initiation of the reaction.
# [13] = upon administration of r-Antidote
# [14] = 30 minutes post rivaroxaban (before treatment)
molecule,measurement,setting,value
COc1ccc(-n2nc(C(N)=O)c3c2C(=O)N(c2ccc(N4CCCCC4=O)cc2)CC3)cc1 [apixaban],fraction unbound,"[1]; male, SD, rat, plasma",0.0005
same,concentration at 30 min,"[1]; male, SD, rat, plasma, iv",1400 nM
same,fraction unbound at 30 min,"[1]; male, SD, rat, plasma, iv",0.015
same,concentration at 30 min,[1]; [13],4200 nM
same,mean apixaban plasma concentration,[2],474 nM
same,time of peak anti-fXa activity post last apixaban dose,[3],3 h
CC(=O)Oc1ccccc1C(=O)O [aspirin],blood loss,blood loss [4],118 ± 71 µL
COc1ccc(NC(=O)c2ccc(C(=N)N(C)C)cc2)c(C(=O)Nc2ccc(Cl)cn2)c1 [betrixaban],fraction unbound,"[1]; male, SD, rat, plasma",0.003
same,concentration at 30 min,"[1]; male, SD, rat, plasma, iv",200 nM
same,fraction unbound at 30 min,"[1]; male, SD, rat, plasma, iv",0.41
same,concentration at 30 min,[1]; [13],2000 nM
O=C(NC[C@H]1CN(c2ccc(N3CCOCC3=O)cc2)C(=O)O1)c1ccc(Cl)s1 [rivaroxaban],blood loss,blood loss [4],216 ± 222 µL
same,increase in blood loss,"blood loss [4]; ASA-treated mice (~100 mg/kg/day, 5 days), single oral Riva 50 mg/kg, Riva+ASA vs. ASA",3.4 fold
same,Activated Partial Thromboplastin Times,[5]; 0 minutes post rivaroxaban,28 ± 5 s
same,Activated Partial Thromboplastin Times,[5]; [14],49 ± 8 s
same,Activated Partial Thromboplastin Times,[5]; 35 minutes post rivaroxaban,48 ± 8 s
same,Activated Partial Thromboplastin Times,[5]; 50 minutes post rivaroxaban,48 ± 8 s
same,prolongation of aPTT,[5],1.9 fold and 1.8 fold
same,prolongation of aPTT,[5]; listed as Rivaroxaban,1.9 fold
same,concentration at 30 min,"[1]; male, SD, rat, plasma, iv",1400 nM
same,fraction unbound at 30 min,"[1]; male, SD, rat, plasma, iv",0.022
same,concentration at 30 min,[1]; [13],1900 nM
same,blood loss due to rivaroxaban anticoagulation as share of total blood volume,blood loss [6]; rivaroxaban 1 mg/kg,approximately 10%
same,increase in blood loss compared with vehicle,blood loss [6],3.2 fold and > 3 fold
same,increase in blood loss compared with vehicle,blood loss [6]; listed as Rivaroxaban,3.2 fold
same,blood loss,"blood loss [6]; rivaroxaban group, 15 min collection",22.7±9.3 grams
same,Prothrombin Times,prothrombin time (PT) [7]; 0 minutes post rivaroxaban,6.2 ± 0.4 s
same,Prothrombin Times,prothrombin time (PT) [7]; [14],15.8 ± 1.5 s
same,Prothrombin Times,prothrombin time (PT) [7]; 35 minutes post rivaroxaban,15.0 ± 1.6 s
same,Prothrombin Times,prothrombin time (PT) [7]; 50 minutes post rivaroxaban,13.8 ± 1.3 s
same,prolongation of PT,prothrombin time (PT) [7],2.3 fold and 2.5 fold
same,prolongation of PT,prothrombin time (PT) [7]; listed as Rivaroxaban,2.3 fold
same,free (non-protein bound) fraction of rivaroxaban in plasma,[8]; after r-Antidote 75 mg/rabbit,< 0.5%
same,free (non-protein bound) fraction of rivaroxaban in plasma,[8]; before r-Antidote,26%
same,concentration at 30 min,"[8]; intravenous, 1 mg/kg, just prior to treatment, dose group as labelled",1200 nM
same,concentration at 30 min,"[8]; 30 min time point, 1 mg/kg IV",1650 nM
same,effect on prothrombin time,prothrombin time (PT) [9],prolongation of prothrombin time
same,increase of total rivaroxaban concentration in plasma,[10],7.8 fold
Protamine,effect on fondaparinux anticoagulation,blood loss [11],no statistically significant effect
enoxaparin,share of blood loss occurring within first 10 min prior to treatment,blood loss [12],~26%
same,total blood loss as share of animal's total blood volume,blood loss [12],about 5%
